Data on five compounds can be found in paper PMC4446620, “Bioactive Metabolites from Mangrove Endophytic Fungus Aspergillus sp. 16-5B” (Marine Drugs, 2015).

“Also recorded” adds a separate entry of the source.

One data set addresses α-glucosidase (Saccharomyces cerevisiae, UniProt P53341). Briefly: Assay for α-glucosidase inhibitory activity. The class given is biochemical. To be noted: for inhibitory effect against α-glucosidase compared with acarbose, in words: versus the clinical α-glucosidase inhibitor acarbose. The protocol:
All of the tests for α-glucosidase inhibitory activity were according to a previously described method. […] The reaction was monitored spectrophotometrically by measuring the absorbance at 400 nm for 1-min intervals. […] The IC50 values of the compounds were calculated by nonlinear regression analysis and expressed as the mean ± SD of two distinct experiments. Kinetic parameters were determined using the Lineweaver-Burk double-reciprocal plot method at increasing concentrations of substrates and inhibitors.

Sequence of α-glucosidase (P53341 whole entry): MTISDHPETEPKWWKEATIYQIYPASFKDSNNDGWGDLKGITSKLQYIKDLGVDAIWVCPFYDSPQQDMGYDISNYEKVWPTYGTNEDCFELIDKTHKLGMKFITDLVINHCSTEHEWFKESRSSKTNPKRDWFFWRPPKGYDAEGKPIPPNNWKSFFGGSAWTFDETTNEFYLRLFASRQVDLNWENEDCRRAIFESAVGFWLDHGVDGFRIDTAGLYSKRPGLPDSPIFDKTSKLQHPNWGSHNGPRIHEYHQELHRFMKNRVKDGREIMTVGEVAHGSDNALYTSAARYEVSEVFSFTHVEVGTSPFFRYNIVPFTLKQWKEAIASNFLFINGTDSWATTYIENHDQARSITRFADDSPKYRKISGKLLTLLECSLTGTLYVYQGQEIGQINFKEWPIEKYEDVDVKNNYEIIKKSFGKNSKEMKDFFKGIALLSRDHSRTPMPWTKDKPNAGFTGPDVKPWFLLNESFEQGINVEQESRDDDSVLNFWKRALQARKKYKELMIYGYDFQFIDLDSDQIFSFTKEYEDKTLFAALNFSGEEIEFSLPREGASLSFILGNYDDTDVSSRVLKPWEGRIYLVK

As a reminder, the melting point is the temperature of the solid-liquid transition. Compound `CCC[C@@]1(O)OC(=O)c2c1cc(O)c(O)c2C` [Compound 4, (R)-3-demethylpurpurester A] registered a melting point of 201.2 to 201.9 °C.

With `Cc1c(O)cc2c(c1O)C(=O)O[C@@H]2[C@H](C)O` [Compound 6, pestaphthalides A], on α-glucosidase, the “α-glucosidase inhibitory activity, in words” value is recorded as “moderate inhibitory activities” and the “inhibitory effect against α-glucosidase compared with acarbose, in words” value is “more potent inhibitory effects”.

For the compound `COC1(C)OC(=O)c2c(cc(O)c(C)c2O)C1=O` (stereo not shown) [Compound 3], the melting point is 134.2 to 134.8 °C.

Turning to `CC=Cc1cc2c(o1)C(=O)C(C)(OC(=O)c1c(C)cc(O)cc1O)C(O)C2` (stereo not shown) [Compound 1, aspergifuranone], the melting point is 121.1 to 121.6 °C. Moreover, at α-glucosidase (Lineweaver-Burk plot method), the “inhibition type of α-glucosidase (kinetic analysis)” value is on record as “noncompetitive inhibitor; also recorded: noncompetitive inhibition”. Moreover, the “inhibitory effect against α-glucosidase compared with acarbose, in words” value against α-glucosidase was “more potent inhibitory effects”.

Compound `COC1(C)OC(=O)c2c(cc(O)c(C)c2O)C1O` (stereo not shown) [Compound 2] gave a melting point of 174.4 to 174.9 °C. For the same compound, on α-glucosidase, the “α-glucosidase inhibitory activity, in words” value is recorded as “moderate inhibitory activities” and the “inhibitory effect against α-glucosidase compared with acarbose, in words” value is “more potent inhibitory effects”.
